{
  "source": "patent US10219516B2",
  "about": "“Molecules having pesticidal utility, and intermediates, compositions, and processes, related thereto” (priority 2015, dated 2019)",
  "assay_type_in_all_cases": "in vivo",
  "key": {"[1]": {"tested_on": "Beet Armyworm (Spodoptera exigua, LAPHEG)", "assay": "Bioassay on Beet Armyworm (BAW), 128-well diet tray assay", "summary_of_the_method": "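Second-instar larvae, one to five per well, placed on artificial diet surface-treated with 50 μg/cm^2 compound applied in 90:10 acetone-water and dried. Held 5–7 days at 25° C., 14:10 light-dark. Percent mortality recorded per well and averaged over eight wells.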"}, "[2]": {"tested_on": "Cabbage Looper (Trichoplusia ni, TRIPNI)", "assay": "Bioassay on Cabbage Looper (CL), 128-well diet tray assay", "conditions": "Trichoplusia ni", "summary_of_the_method": "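Second-instar larvae, one to five per well, were placed on artificial diet surface-treated with 50 μg/cm^2 test molecule applied in 90:10 acetone-water and dried, eight wells per molecule. Trays were covered, vented and held at 25° C., 14:10 light-dark for five to seven days; percent mortality per well was averaged.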"}, "[3]": {"tested_on": "Yellow Fever Mosquito (Aedes aegypti, AEDSAE)", "assay": "Bioassay on Yellow Fever Mosquito (YFM), 96-well plate larval assay", "conditions": "for YFM (Biological Results, rating): Species YFM (Yellow Fever Mosquito); for YFM rating: Yellow Fever Mosquito, 96-well plate larval assay", "procedure": "Certain molecules disclosed in this document were tested against YFM using procedures described in the following paragraph. In the reporting of the results, the “GPA & YFM Rating Table” was used (See Table Section).\nMaster plates containing 400 μg of a molecule dissolved in 100 μL of dimethyl sulfoxide (DMSO) (equivalent to a 4000 ppm solution) are used. A master plate of assembled molecules contains 15 μL per well. To this plate, 135 μL of a 90:10 water/acetone mixture is added to each well. A robot is programmed to dispense 15 μL aspirations from the master plate into an empty 96-well shallow plate (“daughter” plate). There are 6 reps (“daughter” plates) created per master. The created “daughter” plates are then immediately infested with YFM larvae.\nThe day before plates are to be treated, mosquito eggs are placed in Millipore water containing liver powder to begin hatching (4 g. into 400 mL). After the “daughter” plates are created using the robot, they are infested with 220 μL of the liver powder/larval mosquito mixture (about 1 day-old larvae). After plates are infested with mosquito larvae, a non-evaporative lid is used to cover the plate to reduce drying. Plates are held at room temperature for 3 days prior to grading. After 3 days, each well is observed and scored based on mortality. The results are indicated in the table entitled “Table ABC: Biological Results” (See Table Section)."}, "[4]": {"conditions": "Species BAW (Beet Armyworm), read-out: BAW (Biological Results, rating)"}, "[5]": {"conditions": "Species CL (Cabbage Looper), read-out: CL (Biological Results, rating)"}, "[6]": {"conditions": "Beet Armyworm, 128-well diet tray assay, read-out: BAW rating"}, "[7]": {"conditions": "Cabbage Looper, 128-well diet tray assay, read-out: CL rating"}},
  "note": "Where two headings read alike, the source gives them in different places.",
  "data": [
    {"smiles": "CNc1ccc(NC(=O)c2cc(NC(=O)[C@H]3[C@H](c4ccc(Br)c(Cl)c4)C3(Cl)Cl)ccc2Cl)c(C)c1", "note": "(relative stereo) [F323, 5-(trans-3-(4-bromo-3-chlorophenyl)-2,2-dichlorocyclopropane-1-carboxamido)-2-chloro-N-(2-methyl-4-(methylamino)phenyl)benzamide]", "values": [
      {"measurement": "pest or weed control at 50 µg/cm2", "setting": "[1]; [4]", "value": "50 to 100", "unit": "%"},
      {"measurement": "pest or weed control at 50 µg/cm2", "setting": "[2]; [5]", "value": "50 to 100", "unit": "%"},
      {"measurement": "YFM (Biological Results, rating)", "setting": "[3]", "value": "A (80-100)"}
    ]},
    {"smiles": "CN(C(=O)c1cc(NC(=O)[C@H]2[C@H](c3cccc(C(F)(F)F)c3)C2(Cl)Cl)ccc1Cl)c1ccc(F)cc1", "note": "(relative stereo) [F57, trans-2-Chloro-5-(2,2-dichloro-3-(3-(trifluoromethyl)phenyl)cyclopropane-1-carboxamido)-N-(4-fluorophenyl)-N-methylbenzamide]", "values": [
      {"measurement": "pest or weed control at 50 µg/cm2", "setting": "[1]; [4]", "value": "50 to 100", "unit": "%"},
      {"measurement": "pest or weed control at 50 µg/cm2", "setting": "[2]; [5]", "value": "50 to 100", "unit": "%"},
      {"measurement": "YFM (Biological Results, rating)", "setting": "[3]", "value": "B (More than 0-Less than 80)"}
    ]},
    {"smiles": "O=C(Nc1ccc(S(=O)(=O)C(F)(F)F)cc1)c1cc(NC(=O)[C@H]2[C@H](c3cc(Cl)cc(Cl)c3)C2(Cl)Cl)ccc1Cl", "note": "(relative stereo) [PF19, trans-2-Chloro-5-(2,2-dichloro-3-(3,5-dichlorophenyl)cyclopropane-1-carboxamido)-N-(4-((trifluoromethyl)sulfonyl)phenyl)benzamide]", "values": [
      {"measurement": "pest or weed control at 50 µg/cm2", "setting": "[1]; [6]", "value": "50 to 100", "unit": "%"},
      {"measurement": "pest or weed control at 50 µg/cm2", "setting": "[2]; [7]", "value": "50 to 100", "unit": "%"},
      {"measurement": "YFM rating", "setting": "[3]", "value": "A (80-100)"}
    ]},
    {"smiles": "Nc1c(F)ccc(NC(=O)c2cc(NC(=O)[C@H]3[C@H](c4ccc(Cl)c(Cl)c4)C3(Cl)Cl)ccc2Cl)c1F", "note": "[F314, N-(3-Amino-2,4-difluorophenyl)-2-chloro-5-((1R,3R)-2,2-dichloro-3-(3,4-dichlorophenyl)cyclopropane-1-carboxamido)benzamide]", "values": [
      {"measurement": "pest or weed control at 50 µg/cm2", "setting": "[1]; [4]", "value": "50 to 100", "unit": "%"},
      {"measurement": "pest or weed control at 50 µg/cm2", "setting": "[2]; [5]", "value": "50 to 100", "unit": "%"},
      {"measurement": "YFM (Biological Results, rating)", "setting": "[3]", "value": "A (80-100)"}
    ]},
    {"smiles": "O=C(Nc1ncc(F)cc1F)c1cc(NC(=O)[C@H]2[C@H](c3cc(Cl)cc(Cl)c3)C2(Cl)Cl)ccc1Cl", "note": "[F309, 2-Chloro-5-((1R,3R)-2,2-dichloro-3-(3,5-dichlorophenyl)cyclopropane-1-carboxamido)-N-(3,5-difluoropyridin-2-yl)benzamide]", "values": [
      {"measurement": "YFM (Biological Results, rating)", "setting": "[3]", "value": "A (80-100)"}
    ]},
    {"smiles": "O=C(Nc1ccc(F)cc1F)c1cc(NC(=O)C2C(c3cc(F)c(F)c(F)c3)C2(Cl)Cl)ccc1Cl", "note": "(stereo not drawn) [F582, 2-Chloro-5-cis-(2,2-dichloro-3-(3,4,5-trifluorophenyl)cyclopropane-1-carboxamido)-N-(2,4-difluorophenyl)benzamide]", "values": [
      {"measurement": "YFM rating", "setting": "[3]", "value": "A (80-100)"}
    ]},
    {"smiles": "O=C(Nc1ccc(F)cc1)c1cc(NC(=O)[C@H]2[C@H](c3cc(Cl)cc(Cl)c3)C2(Cl)Cl)c(Cl)cc1Cl", "note": "(relative stereo) [F250, trans-2,4-Dichloro-5-(2,2-dichloro-3-(3,5-dichlorophenyl)cyclopropane-1-carboxamido)-N-(4-fluorophenyl)benzamide]", "values": [
      {"measurement": "pest or weed control at 50 µg/cm2", "setting": "[1]; [4]", "value": "0 to 50", "unit": "%"},
      {"measurement": "YFM (Biological Results, rating)", "setting": "[3]", "value": "B (More than 0-Less than 80)"}
    ]},
    {"smiles": "O=C(Nc1ccccc1)c1cc(NC(=O)[C@H]2[C@H](c3cc(Cl)cc(Cl)c3)C2(Cl)Cl)c(Cl)cc1Cl", "note": "(relative stereo) [F254, trans-2,4-Dichloro-5-(2,2-dichloro-3-(3,5-dichlorophenyl)cyclopropane-1-carboxamido)-N-phenylbenzamide]", "values": [
      {"measurement": "YFM (Biological Results, rating)", "setting": "[3]", "value": "A (80-100)"}
    ]},
    {"smiles": "O=C(Nc1ccc(Cl)nn1)c1cc(NC(=O)[C@H]2[C@H](c3cc(Cl)cc(Cl)c3)C2(Cl)Cl)ccc1Cl", "note": "(relative stereo) [PF148, trans-2-Chloro-N-(6-chloropyridazin-3-yl)-5-(2,2-dichloro-3-(3,5-dichlorophenyl)cyclopropane-1-carboxamido)benzamide]", "values": [
      {"measurement": "YFM rating", "setting": "[3]", "value": "A (80-100)"}
    ]},
    {"smiles": "O=C(Nc1cc(F)cc([N+](=O)[O-])c1)c1cc(NC(=O)[C@H]2[C@H](c3cc(Cl)cc(Cl)c3)C2(Cl)Cl)ccc1Cl", "note": "[F415, 2-Chloro-5-((1R,3R)-2,2-dichloro-3-(3,5-dichlorophenyl)cyclopropane-1-carboxamido)-N-(3-fluoro-5-nitrophenyl)benzamide]", "values": [
      {"measurement": "YFM rating", "setting": "[3]", "value": "A (80-100)"}
    ]},
    {"smiles": "N#Cc1ccc(NC(=O)c2cc(NC(=O)C3C(c4cc(Cl)cc(Cl)c4)C3(Cl)Cl)ccc2Cl)cc1Cl", "note": "(stereo not drawn) [PF120, 2-Chloro-N-(3-chloro-4-cyanophenyl)-5-(trans)-2,2-dichloro-3-(3,5-dichlorophenyl)cyclopropane-1-carboxamido)benzamide]", "values": [
      {"measurement": "YFM rating", "setting": "[3]", "value": "A (80-100)"}
    ]},
    {"smiles": "CSc1ccc(NC(=O)[C@H]2[C@H](c3cc(Cl)cc(Cl)c3)C2(Cl)Cl)cc1C(=O)Nc1ccc(F)cc1", "note": "(relative stereo) [F115, trans-5-(2,2-Dichloro-3-(3,5-dichlorophenyl)cyclopropane-1-carboxamido)-N-(4-fluorophenyl)-2-(methylthio)benzamide]", "values": [
      {"measurement": "pest or weed control at 50 µg/cm2", "setting": "[1]; [4]", "value": "50 to 100", "unit": "%"},
      {"measurement": "pest or weed control at 50 µg/cm2", "setting": "[2]; [5]", "value": "50 to 100", "unit": "%"}
    ]},
    {"smiles": "C=CCN(C(=O)c1cc(NC(=O)[C@H]2[C@H](c3cc(Cl)cc(Cl)c3)C2(Cl)Cl)ccc1Cl)c1ccc(F)cc1", "note": "(relative stereo) [F102, trans-N-Allyl-2-chloro-5-(2,2-dichloro-3-(3,5-dichlorophenyl)cyclopropane-1-carboxamido)-N-(4-fluorophenyl)benzamide]", "values": [
      {"measurement": "pest or weed control at 50 µg/cm2", "setting": "[1]; [4]", "value": "50 to 100", "unit": "%"},
      {"measurement": "pest or weed control at 50 µg/cm2", "setting": "[2]; [5]", "value": "50 to 100", "unit": "%"}
    ]},
    {"smiles": "N#Cc1ccc(NC(=O)c2cc(NC(=O)[C@H]3[C@H](c4cc(Cl)c(Cl)c(Cl)c4)C3(Cl)Cl)ccc2F)c(F)c1", "note": "(relative stereo) [F95, trans-N-(4-Cyano-2-fluorophenyl)-5-(2,2-dichloro-3-(3,4,5-trichlorophenyl)cyclopropane-1-carboxamido)-2-fluorobenzamide]", "values": [
      {"measurement": "pest or weed control at 50 µg/cm2", "setting": "[1]; [4]", "value": "50 to 100", "unit": "%"},
      {"measurement": "pest or weed control at 50 µg/cm2", "setting": "[2]; [5]", "value": "50 to 100", "unit": "%"}
    ]},
    {"smiles": "O=C(Nc1c(F)cccc1F)c1cc(NC(=O)[C@H]2[C@H](c3ccccc3)C2(Cl)Cl)ccc1Cl", "note": "(relative stereo) [F111, trans-2-Chloro-5-(2,2-dichloro-3-phenylcyclopropane-1-carboxamido)-N-(2,6-difluorophenyl)benzamide]", "values": [
      {"measurement": "pest or weed control at 50 µg/cm2", "setting": "[1]; [4]", "value": "50 to 100", "unit": "%"},
      {"measurement": "pest or weed control at 50 µg/cm2", "setting": "[2]; [5]", "value": "50 to 100", "unit": "%"}
    ]},
    {"smiles": "CN(C(=O)c1cc(NC(=O)[C@H]2[C@H](c3ccc(Cl)c(Cl)c3)C2(Cl)Cl)ccc1Cl)c1ccc(C#N)cc1F", "note": "(relative stereo) [F107, trans-2-Chloro-N-(4-cyano-2-fluorophenyl)-5-(2,2-dichloro-3-(3,4-dichlorophenyl)cyclopropane-1-carboxamido)-N-methylbenzamide]", "values": [
      {"measurement": "pest or weed control at 50 µg/cm2", "setting": "[1]; [4]", "value": "50 to 100", "unit": "%"},
      {"measurement": "pest or weed control at 50 µg/cm2", "setting": "[2]; [5]", "value": "50 to 100", "unit": "%"}
    ]},
    {"smiles": "Nc1c(F)ccc(NC(=O)c2cc(NC(=O)[C@H]3[C@H](c4ccc(Cl)c(Br)c4)C3(Cl)Cl)ccc2Cl)c1F", "note": "(relative stereo) [F338, N-(3-Amino-2,4-difluorophenyl)-5-(trans-3-(3-bromo-4-chlorophenyl)-2,2-dichlorocyclopropane-1-carboxamido)-2-chlorobenzamide]", "values": [
      {"measurement": "pest or weed control at 50 µg/cm2", "setting": "[1]; [4]", "value": "50 to 100", "unit": "%"},
      {"measurement": "pest or weed control at 50 µg/cm2", "setting": "[2]; [5]", "value": "50 to 100", "unit": "%"}
    ]},
    {"smiles": "O=C(Nc1ncc(F)cc1F)c1cc(NC(=O)[C@H]2[C@H](c3cc(Cl)cc(C(F)F)c3)C2(Cl)Cl)ccc1Cl", "note": "(relative stereo) [F584, 2-Chloro-5-(trans-2,2-dichloro-3-(3-chloro-5-(difluoromethyl)phenyl)cyclopropane-1-carboxamido)-N-(3,5-difluoropyridin-2-yl)benzamide]", "values": [
      {"measurement": "pest or weed control at 50 µg/cm2", "setting": "[1]; [6]", "value": "50 to 100", "unit": "%"},
      {"measurement": "pest or weed control at 50 µg/cm2", "setting": "[2]; [7]", "value": "50 to 100", "unit": "%"}
    ]}
  ]
}
